Data from PubChem BioAssay (NCI).
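Assay format: 96-well plates, 48-hour exposure. The concentration for full growth arrest is given as TGI.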 Where a SMILES comes first, the peptide text is derived from it.

Experiments:
Experiment in all cases: DTP human tumour cell line panel, 48 h
A549 NSCLC = system: A549 NSCLC
ACHN renal = system: ACHN renal
COLO 205 colon = system: COLO 205 colon
HCT-116 colon = system: HCT-116 colon
HT29 colon = system: HT29 colon
KM12 colon = system: KM12 colon
MALME-3M melanoma = system: MALME-3M melanoma
NCI-H226 lung = system: NCI-H226 lung
NCI-H23 lung = system: NCI-H23 lung
NCI-H460 lung = system: NCI-H460 lung
NCI-H522 lung = system: NCI-H522 lung
OVCAR-5 ovarian = system: OVCAR-5 ovarian
PC-3 prostate = system: PC-3 prostate
SF-268 CNS = system: SF-268 CNS
SF-295 CNS = system: SF-295 CNS
SF-539 CNS = system: SF-539 CNS
TK-10 renal = system: TK-10 renal
UACC-257 melanoma = system: UACC-257 melanoma
UO-31 renal = system: UO-31 renal
RXF 393 renal = system: RXF 393 renal

Row | SMILES | TGI (A549 NSCLC) [µM] | TGI (ACHN renal) [µM] | TGI (COLO 205 colon) [µM] | TGI (HCT-116 colon) [µM] | TGI (HT29 colon) [µM] | TGI (KM12 colon) [µM] | TGI (MALME-3M melanoma) [µM] | TGI (NCI-H226 lung) [µM] | TGI (NCI-H23 lung) [µM] | TGI (NCI-H460 lung) [µM] | TGI (NCI-H522 lung) [µM] | TGI (OVCAR-5 ovarian) [µM] | TGI (PC-3 prostate) [µM] | TGI (SF-268 CNS) [µM] | TGI (SF-295 CNS) [µM] | TGI (SF-539 CNS) [µM] | TGI (TK-10 renal) [µM] | TGI (UACC-257 melanoma) [µM] | TGI (UO-31 renal) [µM] | TGI (RXF 393 renal) [µM]
1 | CN(C)CCNC1=CC(=O)c2nc3ccccc3c3ccnc1c23 | 26.3 | 15 | 9.21 | 14.8 | 14.2 | 17.4 | 16.2 | 18.8 | 18.9 | 9.91 | 16.2 | 34.1 | 17.2 | 21.5 | 19.8 | 15.5 | 97.5 | 22.6 | 23.8 | 
2 | COc1ccc2c(c1)CCN1CCCc3ccc(OC)cc3C21 (centres undefined) | > 100 | > 100 | > 100 | > 100 | > 100 | > 100 |  | > 100 | > 100 |  | > 100 | > 100 | > 100 | > 100 | > 100 | > 100 | > 100 | > 100 | > 100 | > 100
3 | C[C@]12CC[C@H]3[C@@H](CCC4=CC(=O)CC[C@@]43C)[C@@H]1CC[C@@H]2C(=O)Nc1ccc([N+](=O)[O-])c(C(F)(F)F)c1 | 37.1 | 38.9 | 36.7 | 32.2 | 32.1 | 36.4 | 31.2 | 39 | > 10 | 33.4 | 37.2 | > 10 | 40 | 36.5 | 31.7 | 33.5 | 35.3 | > 10 | 32.8 | 
4 | CC(=O)OC1CC2C(C)(C)C(=O)C=C[C@]2(C)C2CCC3(C)C(c4ccoc4)[C@@H](O)[C@H]4O[C@]43[C@]12C (some centres undefined) | 85.7 | 50 | 37.6 | 51.9 | 40.3 | 35.1 | 51.7 | 33.5 | 34.4 | 36.5 | 28 | 50 |  | 51.8 | 42.5 | 34.2 | 88.7 | 41.6 | 31.8 | 35.5
5 | O=P(c1ccccc1)(c1ccccc1)c1ccc2c(c1)OCCOCCOCCOCCO2 | > 100 | > 100 | > 100 | > 100 |  | > 100 | > 100 | > 100 | > 100 | > 100 | > 100 |  | > 100 | > 100 | > 100 | > 100 | > 100 |  | > 100 | 
6 | CCC(CCN)(CCN)[N+](=O)[O-] | > 100 |  | > 100 | > 100 | > 100 | > 100 | > 100 |  |  | > 100 | > 100 | > 100 | > 100 | > 100 | > 100 | > 100 |  | > 100 |  | > 100
7 | NCCCCN(CCCN)Cc1ccc2ccccc2c1 | > 100 | 53.8 | > 100 | > 100 | > 100 | > 100 | > 100 | > 100 | > 100 | 55.2 | 37.6 | > 100 |  | 44 | > 100 | > 100 | > 100 | > 100 | 71 | > 100
8 | c1ccc2sc(C3(N4CCC5(CC4)OCCO5)CCCCC3)cc2c1 | > 100 | > 100 | > 100 | > 100 | 86.4 | > 100 | > 100 | > 100 | > 100 | > 100 | > 100 | > 100 |  | > 100 | > 100 | > 100 | > 100 | > 100 | > 100 | > 100
9 | CC1=NN(c2cccc(Cl)c2)C(=N/c2nc3ccccc3s2)/C1=C\c1cccs1 |  | > 100 |  | > 100 | > 100 | > 100 |  | > 100 | 61.8 | > 100 | 93.8 | > 100 | > 100 | > 100 | > 100 | > 100 | > 100 | > 100 | > 100 | > 100
10 | Cn1c(=O)n2c(-c3ccccc3)c(-c3ccccc3)n2c1=O | > 100 | > 100 | > 100 | > 100 | > 100 | > 100 | > 100 | > 100 | > 100 | > 100 |  | > 100 | > 100 |  | > 100 | > 100 | > 100 | > 100 | > 100 | > 100
11 | CC1C2(C)OC(=N)C(C#N)(C(C)O2)C1(C#N)C#N (centres undefined) | > 100 | > 100 | 24.5 | 65 | > 100 | > 100 | 62.3 | > 100 | 86.8 | 42.8 |  | > 100 | > 100 | > 100 | > 100 | 47.1 | > 100 | 46 | > 100 | 35.7
12 | C=C1CC2CC(=O)C(O)C(C1)C2 (centres undefined) | > 100 | > 100 | > 100 | > 100 | > 100 | > 100 |  | > 100 | > 100 | > 100 | > 100 | > 100 |  | > 100 | > 100 | > 100 | > 100 | > 100 | > 100 | > 100
13 | CC1=CC(=O)c2c(C=O)c(O)c(O)c(C(C)C)c2C1=O |  | 32.6 | 57.4 | 38.5 |  |  | 68.2 | 54.8 | > 85.5 | > 74.1 | 32.4 | > 92.2 |  | 77.2 |  | 58.4 |  |  | > 56.8 | 20.8
14 | Nc1ncnc2c1ncn2C1C=CC(COS(N)(=O)=O)C1 (centres undefined) | > 100 | > 100 | > 100 | > 100 | > 100 | > 100 | > 100 | > 100 | 82.1 | > 100 |  | > 100 | > 100 | > 100 | > 100 | 7.12 | > 100 | > 100 | > 100 | > 100
15 | O=[N+]([O-])c1ccc(N/N=C(\c2ccccc2)c2ccccn2)nc1 | 24.2 | 18.7 | > 60 | 29.8 | > 100 | > 45.8 | 14.4 |  | 14.9 | 22.8 | 12.7 | 85.1 | > 44.7 | 35.5 | 25.7 | 15.3 |  | 29.8 | 4.69 | 31.8
16 | CCCCCNC(=O)c1c(O)[nH]c(=S)[nH]c1=O | > 100 | > 100 | > 100 | > 100 | > 100 | > 100 | > 100 | > 100 | > 100 | > 100 | > 100 | > 100 |  | > 100 | > 100 | > 100 | > 100 | > 100 |  | 
17 | Cc1c(C(=O)/C=C/c2c(Cl)cccc2Cl)c(=O)n(-c2ccccc2)n1C | 74.9 | > 100 | > 100 | > 100 | > 100 | 44.8 | > 100 | 39.1 |  | 82.7 | 48.5 | > 100 |  | > 100 | 75.9 |  | > 100 | > 100 | > 100 | 20.4
18 | C=C(Br)C(C)(Br)CCC(Br)C(C)(C)Br (centres undefined) | > 100 | > 100 | 35.8 | 47.7 | > 100 | > 100 | 81.8 | > 100 | > 100 | > 100 | 28.3 | > 100 |  | 91 | 62 | 38.8 | > 100 | > 100 | > 100 | > 100
19 | CC(=O)O[C@H]1CC[C@@]2(C)C(=C[C@H](c3ccc(O)cc3)[C@H]3[C@@H]4CC[C@H](OC(C)=O)[C@@]4(C)CC[C@@H]32)C1 | 40.5 | 80.6 | 35.2 | 29.7 | 26.5 | 31 | 34.2 | 40.5 | 53.7 | 40.6 |  | 97.9 | 46.2 | 39.3 | 77.9 | 43.9 | > 100 | 51.6 | 76.4 | 51.1
20 | CNC(=O)CNC(=O)C(NC(=O)CNC(=O)C1CCCN1C(=O)C(C)NC(=O)C(NC(C)=O)C(C)C)C(C)C (centres undefined) (Ac-VAPGVG-NHMe; configuration not given here) |  | > 100 | > 100 | > 100 | > 100 |  | > 100 |  | > 100 | > 100 | > 100 | > 100 | > 100 | > 100 | > 100 | > 100 | > 100 | > 100 | > 100 | 
21 | Clc1ccc(C2=C(c3ccccc3)C(c3ccc(Cl)cc3)N3C(=N[C@H]4CCCC[C@@H]43)N2)cc1 (some centres undefined) | 24.4 | 23.2 | 19.4 | 14.7 | 11.7 | 23.5 | 34.8 | 47.9 | 28 | 11.1 |  | 29.8 | 21.8 | 44.8 | 23.8 | 29.7 | 22.3 | 32.2 | 26.4 | 27.6
22 | C/C=C1\CNC1C(=O)O (centres undefined) | > 100 | > 100 | > 100 | > 100 | > 100 |  | > 100 |  | > 100 | > 100 |  | > 100 | > 100 | > 100 | > 100 | > 100 | > 100 | > 100 | > 100 | 
23 | O=C1C2=Cc3ccccc3OC2(O)Oc2ccc(O)cc21 (centres undefined) | > 100 | 29.6 | > 100 | > 100 | > 100 | > 100 | > 100 | > 100 | > 100 |  |  | > 100 | > 100 | > 100 | > 100 | > 100 | > 100 | > 100 |  | > 100
24 | CN(C)C1(N(C)C)Oc2c(c(=O)n(C)c(=O)n2C)C(c2ccccc2Br)C1(F)F (centres undefined) | > 100 | > 100 | > 100 | > 100 |  | > 100 |  | > 100 | > 100 | > 100 |  | > 100 | > 100 | > 100 | > 100 | > 100 | > 100 | > 100 | > 100 | > 100
25 | OCCCc1cc(O)c2c(c1)C(CO)C(c1ccc(O)c(O)c1)O2 (centres undefined) | > 100 | > 100 | > 100 | > 100 | > 100 | > 100 | > 100 | > 100 | > 100 | > 100 | > 100 | > 100 | > 100 | > 100 | > 100 | > 100 | > 100 | > 100 | > 100 | 
26 | CSc1nc2c(c(=O)[nH]1)N=C(c1ccc(Cl)cc1)CC(c1ccccc1)N2 (centres undefined) | 26.4 | 29 | 34 | 51.4 | 31.4 | 30 | 42.8 | 58.7 | 30 |  | 29.4 | 34.2 | 45.3 |  | 32.6 | 33.3 |  | 34.3 | 26.8 | 34.4
